From patent publication US8138218B2, “Growth hormone secretagogues” (Ipsen Pharma S.A.S., priority 2005, dated 2012)

Biological target: T1, human growth hormone secretagogue receptor-1a (hGHS-R1a) (Homo sapiens, UniProt Q92847)
T1 construct: The full length hGHS-R1a was subcloned into the mammalian expression vector pcDNA 3.1; expressed in transfected cells
Assay: hGHS-R1a binding assay, (125I)ghrelin displacement on CHO-K1 cell membranes
Settings: membranes of CHO-K1 cells expressing hGHS-R1a; 0.05 nM (125I)ghrelin; sixty minute incubation at 4° C.
Text: A. Preparation of CHO-K1 cells expressing the human recombinant GHS receptor-1a
The cDNA for human growth hormone secretagogue receptor-1a (hGHS-R1a) was cloned by Polymerase Chain Reaction (PCR) using human brain RNA as a template (Clontech®, Palo Alto, Calif.), gene specific primers flanking the full-length coding sequence of hGHS-R1a, (S: 5′-[…]-3′ and AS: 5′-[…]-3′), and an Advantage 2 PCR Kit® (Clontech®). The PCR product was cloned into the pCR2.1 vector using an Original TA Cloning Kit® (Invitrogen®, Carlsbad, Calif.). The full length hGHS-R1a was subcloned into the mammalian expression vector pcDNA 3.1 (Invitrogen®, Carlsbad, Calif.). The plasmid was transfected into the Chinese hamster ovary cell line, CHO-K1 (American Type Culture Collection®, Rockville, Md.), by calcium phosphate method (Wigler, M et al., Cell, (1977), 11:223). Single cell clones stably expressing the hGHS-R1a were obtained by selecting transfected cells grown in cloning rings in RPMI 1640 media supplemented with 10% fetal bovine serum and 1 mM sodium pyruvate containing 0.8 mg/ml G418 (Gibco®, Grand Island, N.Y.).
B. hGHS-R1a Binding Assay:
Membranes for radioligand binding studies can be and were prepared by homogenization of the foregoing CHO-K1 cells expressing the hGHS-R1a in 20 ml of ice-cold 50 mM Tris-HCl with a Brinkman Polytron® (Westbury, N.Y.) (setting 6, 15 sec). The homogenates were washed twice by centrifugation (39,000 g/10 min) and the final pellets were re-suspended in 50 mM Tris-HCl containing 2.5 mM MgCl2 and 0.1% BSA. For the assay, aliquots (0.4 ml) were incubated with 0.05 nM (^125I)ghrelin (˜2000 Ci/mmol)(Perkin Elmer Life Sciences®, Boston, Mass.) with and without 0.05 ml of unlabeled competing test compounds of the invention. After a sixty minute incubation at 4° C., the bound (^125I)ghrelin was separated from the free by rapid filtration through GF/C filters (Brandel®, Gaithersburg, Md.) which were previously soaked in 0.5% polyethyleneimine/0.1% BSA. The filters were then washed three times with 5-ml aliquots of ice-cold 50 mM Tris-HCl and 0.1% bovine serum albumin and the bound radioactivity trapped on the filters was counted by gamma spectrometry (Wallac LKB®, Gaithersburg, Md.). Specific binding was defined as the total (^125I)ghrelin bound minus that bound in the presence of 1000 nM ghrelin

T1 sequence (Q92847 whole entry): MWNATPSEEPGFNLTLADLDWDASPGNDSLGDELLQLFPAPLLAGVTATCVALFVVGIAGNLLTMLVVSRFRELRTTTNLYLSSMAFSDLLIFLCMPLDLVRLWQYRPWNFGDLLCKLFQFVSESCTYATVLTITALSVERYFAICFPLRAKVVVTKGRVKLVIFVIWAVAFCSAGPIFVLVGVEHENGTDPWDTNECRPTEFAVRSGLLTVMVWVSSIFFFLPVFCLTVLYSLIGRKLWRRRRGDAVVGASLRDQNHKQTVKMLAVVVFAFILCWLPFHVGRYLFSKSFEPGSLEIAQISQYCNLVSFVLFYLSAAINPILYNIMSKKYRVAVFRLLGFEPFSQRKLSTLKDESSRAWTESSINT

Structure (SMILES) | Ki
CC(C)(N)C(=O)N[C@H](Cc1csc2ccccc12)C(=O)N[C@@H](Cc1c[nH]c2ccccc12)OC(=O)C(F)(F)F [#73] | 93 nM
O=CN[C@@H](Cc1ccc2ccccc2c1)NC(=O)[C@@H](Cc1csc2ccccc12)NC(=O)C1CCNCC1 [#20] | 133 nM
CC(C)(C)C(=O)N[C@@H](Cc1c[nH]c2ccccc12)NC(=O)[C@@H](Cc1csc2ccccc12)NC(=O)C(C)(C)N [#52] | 65.1 nM
CC(C)(N)C(=O)N[C@H](Cc1csc2ccccc12)C(=O)N[C@H](Cc1cccc2ccccc12)NC=O [#2] | 236 nM
CC(C)(N)C(=O)N[C@H](Cc1csc2ccccc12)C(=O)N[C@H](Cc1c[nH]c2ccccc12)NC=O [#1, Aib-D-Bal-DgTrp-CHO] | 15 nM
CC(C)(N)C(=O)N[C@H](Cc1c[nH]c2ccccc12)C(=O)N[C@H](Cc1csc2ccccc12)NC=O [#5] | 279 nM
CCC(=O)N[C@@H](Cc1c[nH]c2ccccc12)NC(=O)[C@@H](Cc1csc2ccccc12)NC(=O)C(C)(C)N [#50] | 61.5 nM
CC(C)(N)C(=O)N[C@H](Cc1ccc2ccccc2c1)C(=O)N[C@H](Cc1csc2ccccc12)NC=O [#7] | 226 nM
CC(C)(N)C(=O)N[C@H](Cc1cccc2ccccc12)C(=O)N[C@H](Cc1csc2ccccc12)NC=O [#6] | 100 nM
CC(C)C(=O)N[C@@H](Cc1c[nH]c2ccccc12)NC(=O)[C@@H](Cc1csc2ccccc12)NC(=O)C(C)(C)N [#51] | 20.2 nM
O=CN[C@@H](Cc1c[nH]c2ccccc12)NC(=O)[C@@H](Cc1csc2ccccc12)NC(=O)C1CCNCC1 [#18] | 120 nM
CC(C)(N)C(=O)N[C@H](Cc1cccc2ccccc12)C(=O)N[C@H](Cc1c[nH]c2ccccc12)NC=O [#65] | 16.8 nM
CC(C)(N)C(=O)N[C@H](Cc1csc2ccccc12)C(=O)N[C@H](Cc1csc2ccccc12)NC=O [#4] | 92.1 nM
CC(=O)N[C@@H](Cc1c[nH]c2ccccc12)NC(=O)[C@@H](Cc1csc2ccccc12)NC(=O)C(C)(C)N [#11, Aib-D-Bal-DgTrp-C(O)CH3] | 38.2 nM
CC(=O)N[C@H](Cc1c[nH]c2ccccc12)NC(=O)[C@@H](Cc1csc2ccccc12)NC(=O)C(C)(C)N [#12] | 2.56 nM
